Laboratory results published in PMC11820680, “Synthesis of (1,10-Phenanthroline-κ^2N,N′)(β^2-Methyl- and β^2-PhenylAlaninate-κ^2N,O)Copper(II) Nitrate Complexes and Their Antiproliferative Activity on MCF-7 and A549 Cancer Cell Lines” (Molecules, 2025).
Like-named read-outs stand apart in the source and are kept apart here.

Tests used:
[1] = tested on: A549, MCF-7, HEK293, and HaCaT cell cultures; assay: Nuclei staining with Hoechst 33258; format: cell-based
Text: Hoechst dyes are excited by UV light (~360 nm) and emit a broad spectrum of blue light with a maximum at 460 nm. Upon binding to DNA, they increase their fluorescence 30-fold, which ensures a good signal-to-noise ratio. This increase in fluorescence is due to the suppression of rotational relaxation and reduced hydration upon binding to DNA. These dyes are not intercalating; they bind to the minor groove of the DNA in the A-T rich regions. Hoechst dyes are often used to distinguish condensed pyknotic nuclei in apoptotic cells. Briefly, the Hoechst dye stock solution was prepared by dissolving the contents of one vial (100 mg) in 10 mL of deionized water to create a 10 mg/mL (16.23 mM) solution. Then, 5×10^5 cells/mL of A549, MCF-7, HEK293, and HaCaT cells were seeded in 24-well plates on round glass coverslips. Cell cultures were treated with the complexes 3 and 4 using the IC50 calculated previously. At 12 h, the coverslips were removed from the wells. Cells were fixed by adding 200 μL of 4% paraformaldehyde. Later, cells were incubated at 37 °C for 30 min and washed 2 times with PBS. Then, 200 μL Hoechst 33258 (1:1000) was added to the sample and protected from light following incubation at room temperature for 30 min. Subsequently, they were washed 2 times with PBS.

[2] = tested on: A549, MCF-7, HEK293, and HaCaT cell cultures; assay: Apoptosis detection with annexin V FITC and propidium iodide; format: cell-based; conditions: at IC50, 12 h
Protocol: Annexin V detects apoptosis by binding to phosphatidylserine, which during this process is exposed in the outer layer of the cell membrane. Its conjugation with fluorochromes such as FITC allows visualization of this binding by epifluorescence microscopy in the green channel. The detection of apoptosis was determined with the annexin V kit conjugated with the fluorophore FITC (Thermo, cat. 88-8005-72) under the following protocol: 0.5 × 10^6 cells/mL of A549, MCF-7, HEK293, and HaCaT cells were seeded in 24-well plates on round glass coverslips treated with L-polylysine. […] Cultures were incubated for 12 h under standard culture conditions. Subsequently, the cells were washed with 500 μL of cold PBS and incubated for 5 min in a 1X solution of annexin-binding buffer. Next, 15 μL of annexin V conjugate and 5 μL of propidium iodide (PI) were added, and the mixture was incubated over 15 min at room temperature. After washing with 1X buffer, the cells were observed using an epifluorescence microscope (Nikon Eclipse E400). The red channel (TRITC) identified necrosis due to PI intercalation, while the green channel (FITC) detected apoptosis through binding of the phosphatidylserine–annexin V complex.

[3] = tested on: HaCaT; design: method as in doi:10.1016/j.ica.2020.119542; conditions: value taken from previous work ref 16; cited from earlier work
[4] = tested on: A549 (lung cancer); design: method as in doi:10.1016/j.ica.2020.119542; conditions: value taken from previous work ref 16; cited from earlier work
[5] = tested on: A549, MCF-7, HaCaT and HEK293 cell lines; conditions: previously calculated value for the cell lines evaluated; cited from earlier work
[6] = tested on: MCF-7 (breast cancer); design: method as in doi:10.1016/j.ica.2020.119542; conditions: value taken from previous work ref 16; cited from earlier work
[7] = tested on: HEK293; design: method as in doi:10.1016/j.ica.2020.119542; conditions: value taken from previous work ref 16; cited from earlier work
[8] = tested on: A549, MCF-7, HEK293, and HaCaT cell cultures; assay: DNA fragmentation assay (agarose gel); format: cell-based
Text: DNA fragmentation is a characteristic process of apoptosis. During apoptosis, cell DNA is broken into fragments of specific sizes (multiples of 180–200 bp) due to the action of nucleases activated by effector caspases (caspase-3, caspase-7, and caspase-6). To visualize DNA fragmentation on agarose gels, cultures of MCF-7, A549, HEK293, and HaCaT cells treated with complexes 3 and 4 were harvested under the same conditions as the acridine orange/propidium iodide assay and their nuclei stained. Cell cultures were treated with complexes 3 and 4 using the IC50 calculated previously. Cultures were harvested and centrifuged at 12,000 rpm; pellets were washed twice with PBS and resuspended in lysis buffer (10 mM Tris-HCl (pH 7.4), 5 mM EDTA, 0.2% Triton X-100) with RNase and incubated for 1 h at 37 °C. […]. Proteinase K was then added and incubated for 2 h at 55 °C. Extraction was performed with phenol:chloroform:isoamyl. To precipitate DNA, 96% ethanol, 10 M ammonium acetate, and glycogen were added. Finally, the samples were resuspended in 1X Buffer TE and stored at −20 °C. DNA was electrophoretically separated on a 2% agarose gel with ethidium bromide and visualized by UV transillumination.

[9] = tested on: A549, MCF-7, HEK293, and HaCaT cell cultures; assay: Acridine orange / propidium iodide staining, epifluorescence microscopy; format: cell-based
Text: The purpose of using acridine orange (AO) and propidium iodide (PI) is to take advantage of their introduction of viable cells (AO) and non-viable cells (AO/PI) by their intercalating ability in DNA of cells, which by excitation with a wavelength of 400 nm emit radiation of lower energy and longer wavelength (green and red light, respectively). This technique allows differentiating the distinct states in which a cell is found; AO is able to cross the cell membrane regardless of its membrane integrity, so the compound stains all cells, emitting green light and, in some cases, orange if it binds to RNA or where there is high lysosomal activity. PI penetrates the cell when its membrane is damaged by intercalating with higher affinity to DNA and emits red color, eclipsing the intensity caused by AO staining. Briefly, the protocol used for this technique was: 0.5×10^6 cells/mL of A549, MCF-7, HEK293, and HaCaT cells were seeded in 24-well plates on round glass coverslips. All cell cultures were treated with complexes 3 and 4 with the IC50 calculated previously. At 12 h, the coverslips were removed from the wells. Later, 5 μL of a 1:1 mixture of the dyes (50 μg/mL of AO and 100 μg/mL of PI) was added to 5 μL of sample and coverslips were flipped and placed on a slide for observation.

[10] = tested on: MCF-7 (breast cancer); conditions: for IC50: MCF-7, 24 h, MTS; for Selectivity Index (SI): IC50(HaCaT)/IC50(MCF-7)
[11] = tested on: HaCaT; conditions: 24 h, MTS
[12] = tested on: A549 (lung cancer); conditions: for IC50: A549, 24 h, MTS; for Selectivity Index (SI): IC50(HaCaT)/IC50(A549)
[13] = tested on: HEK293; conditions: HEK293, 24 h, MTS
[14] = tested on: A549, MCF-7, HaCaT and HEK293 cell lines; conditions: for IC50: all the cell lines tested; for increase in potency over cisplatin: considering the concentrations used to determine the IC50
[15] = complexes at IC50 of Table 5, 12 h

Molecule	nuclear morphology, Hoechst 33258 ([1]; cisplatin 25 µM)	annexin V-FITC / PI fluorescence [2]	IC50 [3]	IC50 [4]	IC50 [5]	IC50 [6]	IC50 [7]	DNA fragmentation pattern ([8]; cisplatin 25 µM)	morphology, AO/PI staining ([9]; cisplatin 25 µM)	IC50 [10]	IC50 [11]	IC50 [12]	IC50 [13]	Selectivity Index (SI) [10]	nuclear morphology, Hoechst 33258 [1, 15]	Selectivity Index (SI) [12]	IC50 [14]	increase in potency over cisplatin [14]	DNA fragmentation pattern ([8]; complexes at IC50 of Table 5)	morphology, AO/PI staining ([9]; complexes at IC50, 12 h)
N.N.[Cl][Pt][Cl] [Cisplatin, cis-[PtCl2(NH3)2]]	evident change in nuclear structure	intense signal in the green channel (FITC)	25 µM	25 µM	25 µM	25 µM	25 µM	DNA fragmentation is observed	show red nuclei, indicating a decrease in cell viability	–	–	–	–	–	–	–	–	–	–	–
O=[N+]([O-])[O-].O=[N+]([O-])[O-].[Cu+2] [Cu(NO3)2, Copper(II) nitrate]	–	–	–	–	–	–	–	–	–	70200 ± 2030 nM	55500 ± 2030 nM	47800 ± 3220 nM	47600 ± 3220 nM	–	–	–	–	–	–	–
Aqua(1,10-phenanthroline-κ^2N,N’)(β^2-methylalaninate-κ^2N,O)copper(II) nitrate [Compound 3]	–	significant induction of apoptosis	–	–	–	–	–	–	–	350 ± 20 nM	210 ± 20 nM	240 ± 20 nM	190 ± 10 nM	0.6	decrease in the size of the nuclei, irreversible chromatin condensation, and nuclear fragmentation	0.875	< 1000 nM	83 times	specific indication of an apoptotic process	induced morphological features that, in principle, indicate a cell death process
ethanol(1,10-phenanthroline-κ^2N,N’)(β^2-phenylalaninate-κ^2N,O)copper(II) nitrate [Compound 4]	–	significant induction of apoptosis	–	–	–	–	–	–	–	400 ± 20 nM	350 ± 90 nM	220 ± 50 nM	320 ± 20 nM	0.87	decrease in the size of the nuclei, irreversible chromatin condensation, and nuclear fragmentation	1.59	< 1000 nM	83 times	specific indication of an apoptotic process	induced morphological features that, in principle, indicate a cell death process
